Laboratory results taken from patent US6391915B2, “Propanolamine derivatives” (Fujisawa Pharmaceutical Co., Ltd., priority 1997, dated 2002).

Columns and labels:
[1] = system: isolated non-pregnant rat uterus; test: Effect on isolated non-pregnant rat uterus (spontaneous contractions, organ bath); assay type: cell-based; details: 20 min; female SD rat uterus, estradiol-induced oestrus, Locke solution, 37° C., spontaneous contractions observed over 20 minutes
Method: Effect on isolated non-pregnant rat uterus
Female SD rats (150-180 g) were used. 48 and 24 hours prior to use, rats were given estradiol (ovahormon benzoat Trademark, Teikoku Hormone Mfg. Co., Ltd.) subcutaneously at a dose of 40 μg/rat to induce oestrus. The animals were killed and uteri were removed. Each strip was placed in an organ bath containing 25 ml Locke solution aerating with 95% O2, 5% CO2 at 37° C. under 1 g tension. Contractions were recorded isometrically. After the spontaneous contractions were of a uniform size, test compound was added to organ bath. The motility was observed over a 20 minutes period. Effect of test compound was calculated by comparing contractions before and after test compound.

[2] = system: isolated rat distal colon; test: Effect on isolated rat distal colon (spontaneous contractions, organ bath); assay type: cell-based; details: 0.5 h; male SD rat distal colon strip, Tyrode solution, 37° C., spontaneous contractions observed over 30 minutes
Method: Effect on isolated rat distal colon:
Male SD rats (180-230 g) were used. Animals were fasted for 24 hours prior to experiment. Distal colon was removed immediately after sacrifice and placed in an organ bath containing 25 ml Tyrode solution aerating with 95% O2, 5% CO2 at 37° C. The strip was mounted under 0.5 g tension and spontaneous contractions were recorded isometrically. After the mobility was of a uniform size, test compound was added to an organ bath and the contractions were observed over a 30 minutes period. Effect of test compound was calculated by comparing contractions before and after test compound.

| Compound | melting point | IC50 [1] [nM] | IC50 [2] [nM] |
| --- | --- | --- | --- |
| C=CCOc1ccccc1OCC(O)CN[C@H]1CCc2ccc(OCC(=O)OCC)cc2C1.O=C(O)C(=O)O (stereo partly shown) | 105 to 109 °C | – | – |
| CCOC(=O)COc1ccc2c(c1)CC(NC[C@H](O)COc1ccccc1)CCC2.Cl (stereo partly shown) | 122 to 128 °C | – | – |
| O=C([O-])COc1cccc2c1CCCC(NC[C@H](O)COc1ccccc1)C2.[Na+] (stereo partly drawn) [Example 10, sodium [6,7,8,9-tetrahydro-6-[((2S)-2-hydroxy-3-phenoxypropyl)amino]-5H-benzocyclohepten-1-yloxy]acetate] | 65 °C (dec.) | – | – |
| O=C([O-])COc1ccc2c(c1)CCCC(NC[C@H](O)COc1ccccc1)C2.[Na+] (stereo partly drawn) [Example 11, Sodium [6,7,8,9-tetrahydro-6-[((2S)-2-hydroxy-3-phenoxypropyl)amino]-5H-benzocyclohepten-2-yloxy]acetate] | 166 to 174 °C | – | – |
| CCOC(=O)COc1cccc2c1CCCC(N(Cc1ccccc1)C[C@H](O)COc1ccccc1)C2 (stereo partly drawn) [Example 1, (2S)-1-[N-benzyl-(1-ethoxycarbonylmethoxy-6,7,8,9-tetrahydro-5H-benzocyclohepten-6-yl)amino]-3-phenoxy-2-propanol] | – | 370 | 4.2 |
| CCOC(=O)COc1cccc2c1CCCC(NC[C@H](O)COc1ccccc1)C2.Cl (stereo partly shown) | 43 to 58 °C | – | – |
